pEC50: −log10 of the molar value. Starred links: 1 amine or outer side, 2 acyl side, 3 side chain; linkers in the order of their positions; H or OH if unused. Non-standard residues stand in square brackets, D forms with d. Residues, ends and D or L forms follow the SMILES beside them. Groups on a side chain read outwards from the residue. *: point of attachment. C20 diacid = O=C(O)CCCCCCCCCCCCCCCCCCC(=O)*; C18 diacid = O=C(O)CCCCCCCCCCCCCCCCC(=O)*; γGlu = O=C(O)[C@H](CCC(=O)[*:2])N[*:1]; αMeF = C[C@](N)(Cc1ccccc1)C(=O)O; AEEA = NCCOCCOCC(=O)O; Aib = CC(C)(N)C(=O)O
How the values were obtained:
[1] = molecular target: human GLP-1 receptor (hGLP-1R) (Homo sapiens, UniProt P43220); experiment: cAMP production (HTRF) in CHO cells expressing hGLP-1R; assay type: cell-based; parameters: expressed in transfected cells; conditions: for pEC50: Table 6, peptides modified at position 17, cAMP in CHO hGLP-1R cells, geometric mean, read-out: hGLP-1R EC50; for % Relative Potency Ratio: Table 6, % GLP-1R activity relative to GLP-1 / % GlucR activity relative to glucagon
Method in brief: (§1)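 Read-out: HTRF cAMP (anti-cAMP cryptate donor, cAMP-d2 acceptor in conjugate/lysis buffer), converted to % Delta F and fitted by 4-parameter logistic for EC50. Cell densities were 1×10^5 cells/mL (hGLP-1R) or 2×10^5 cells/mL (hGCGR). Stimulation lasted 30 min at room temperature.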

[2] = molecular target: human glucagon receptor (hGCGR) (Homo sapiens, UniProt P47871); experiment: cAMP production (HTRF) in CHO cells expressing hGCGR; assay type: cell-based; parameters: expressed in transfected cells; conditions: Table 6, peptides modified at position 17; cAMP in CHO hGCGR cells; geometric mean; read-out: hGluc-R EC50
Method in brief: as §1

Sequence of human glucagon receptor (hGCGR) (P47871 26-477): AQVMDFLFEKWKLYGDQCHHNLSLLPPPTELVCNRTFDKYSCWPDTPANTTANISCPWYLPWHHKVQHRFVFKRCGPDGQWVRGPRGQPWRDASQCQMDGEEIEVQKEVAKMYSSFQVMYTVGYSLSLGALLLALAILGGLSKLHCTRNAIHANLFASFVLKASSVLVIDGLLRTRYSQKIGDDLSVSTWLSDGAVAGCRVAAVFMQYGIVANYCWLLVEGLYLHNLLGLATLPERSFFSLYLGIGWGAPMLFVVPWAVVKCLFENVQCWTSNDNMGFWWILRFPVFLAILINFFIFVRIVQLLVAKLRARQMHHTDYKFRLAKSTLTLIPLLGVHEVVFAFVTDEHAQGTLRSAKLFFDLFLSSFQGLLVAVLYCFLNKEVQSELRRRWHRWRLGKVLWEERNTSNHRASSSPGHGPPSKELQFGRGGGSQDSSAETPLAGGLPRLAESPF
Sequence of human GLP-1 receptor (hGLP-1R) (P43220 24-463): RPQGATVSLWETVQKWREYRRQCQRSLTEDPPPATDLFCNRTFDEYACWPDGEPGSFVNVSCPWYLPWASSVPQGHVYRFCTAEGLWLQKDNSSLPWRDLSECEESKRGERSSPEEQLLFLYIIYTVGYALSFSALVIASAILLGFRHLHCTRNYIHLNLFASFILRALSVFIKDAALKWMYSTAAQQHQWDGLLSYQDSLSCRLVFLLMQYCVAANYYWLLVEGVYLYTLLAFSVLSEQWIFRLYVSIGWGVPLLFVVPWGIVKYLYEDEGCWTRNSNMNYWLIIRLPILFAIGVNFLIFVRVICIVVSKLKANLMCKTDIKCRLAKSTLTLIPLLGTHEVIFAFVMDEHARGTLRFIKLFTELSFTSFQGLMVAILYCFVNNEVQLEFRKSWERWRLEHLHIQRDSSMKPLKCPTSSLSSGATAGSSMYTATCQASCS

SMILES	pEC50 [1]	% Relative Potency Ratio [1]	pEC50 [2]
CC(C)C[C@H](NC(=O)[C@H](Cc1c[nH]c2ccccc12)NC(=O)[C@H](C)NC(=O)[C@@H](NC(=O)[C@H](Cc1ccccc1)NC(=O)[C@H](CC(=O)O)NC(=O)[C@H](CCC(N)=O)NC(=O)[C@H](C)NC(=O)[C@H](CCCNC(=N)N)NC(=O)[C@H](CCCCNC(=O)COCCOCCNC(=O)COCCOCCNC(=O)CC[C@H](NC(=O)CCCCCCCCCCCCCCCCC(=O)O)C(=O)O)NC(=O)[C@@H](NC(=O)[C@H](CC(=O)O)NC(=O)[C@H](CC(C)C)NC(=O)[C@](C)(Cc1ccccc1)NC(=O)[C@H](CCCCN)NC(=O)[C@H](CO)NC(=O)[C@@H](NC(=O)[C@H](CC(=O)O)NC(=O)[C@H](CO)NC(=O)[C@@H](NC(=O)[C@H](Cc1ccccc1)NC(=O)[C@@H](NC(=O)CNC(=O)[C@H](CCC(N)=O)NC(=O)C(C)(C)NC(=O)[C@@H](N)Cc1c[nH]cn1)[C@@H](C)O)[C@@H](C)O)C(C)C)[C@@H](C)O)C(C)C)C(=O)N[C@@H](CCC(=O)O)C(=O)N[C@@H](C)C(=O)NCC(=O)NCC(=O)O [Peptide 411] (H-H[Aib]QGTFTSDVSK[αMeF]LDTK([AEEA-AEEA-γGlu-C18 diacid])RAQDFVAWLEAGG-OH; N-terminus assumed)	10.01	7.6	9.42
CC(C)C[C@H](NC(=O)[C@H](Cc1c[nH]c2ccccc12)NC(=O)[C@H](C)NC(=O)[C@@H](NC(=O)[C@H](Cc1ccccc1)NC(=O)[C@H](CC(=O)O)NC(=O)[C@H](CCC(N)=O)NC(=O)[C@H](C)NC(=O)[C@H](CCCNC(=N)N)NC(=O)[C@H](CCCCNC(=O)COCCOCCNC(=O)COCCOCCNC(=O)CC[C@H](NC(=O)CCCCCCCCCCCCCCCCCCC(=O)O)C(=O)O)NC(=O)[C@@H](NC(=O)[C@H](CC(=O)O)NC(=O)[C@H](CC(C)C)NC(=O)[C@](C)(Cc1ccccc1)NC(=O)[C@H](CCCCN)NC(=O)[C@H](CO)NC(=O)[C@@H](NC(=O)[C@H](CC(=O)O)NC(=O)[C@H](CO)NC(=O)[C@@H](NC(=O)[C@H](Cc1ccccc1)NC(=O)[C@@H](NC(=O)CNC(=O)[C@H](CCC(N)=O)NC(=O)C(C)(C)NC(=O)[C@@H](N)Cc1c[nH]cn1)[C@@H](C)O)[C@@H](C)O)C(C)C)[C@@H](C)O)C(C)C)C(=O)N[C@@H](CCC(=O)O)C(=O)N[C@@H](C)C(=O)NCC(=O)NCC(=O)O [Peptide 412] (H-H[Aib]QGTFTSDVSK[αMeF]LDTK([AEEA-AEEA-γGlu-C20 diacid])RAQDFVAWLEAGG-OH; N-terminus assumed)	9.73	4.2	9.40
CC(C)C[C@H](NC(=O)[C@H](Cc1c[nH]c2ccccc12)NC(=O)[C@H](C)NC(=O)[C@@H](NC(=O)[C@H](Cc1ccccc1)NC(=O)[C@H](CC(=O)O)NC(=O)[C@H](CCC(N)=O)NC(=O)[C@H](C)NC(=O)[C@H](CCCNC(=N)N)NC(=O)[C@H](CCCCNC(=O)COCCOCCNC(=O)COCCOCCNC(=O)CC[C@H](NC(=O)CC[C@H](NC(=O)CCCCCCCCCCCCCCCCCCC(=O)O)C(=O)O)C(=O)O)NC(=O)[C@@H](NC(=O)[C@H](CC(=O)O)NC(=O)[C@H](CC(C)C)NC(=O)[C@](C)(Cc1ccccc1)NC(=O)[C@H](CCCCN)NC(=O)[C@H](CO)NC(=O)[C@@H](NC(=O)[C@H](CC(=O)O)NC(=O)[C@H](CO)NC(=O)[C@@H](NC(=O)[C@H](Cc1ccccc1)NC(=O)[C@@H](NC(=O)CNC(=O)[C@H](CCC(N)=O)NC(=O)C(C)(C)NC(=O)[C@@H](N)Cc1c[nH]cn1)[C@@H](C)O)[C@@H](C)O)C(C)C)[C@@H](C)O)C(C)C)C(=O)N[C@@H](CCC(=O)O)C(=O)N[C@@H](C)C(=O)NCC(=O)NCC(=O)O [Peptide 413]	9.39	5.0	8.99
CC(C)C[C@H](NC(=O)[C@H](Cc1c[nH]c2ccccc12)NC(=O)[C@H](CCCNC(=N)N)NC(=O)[C@@H](NC(=O)[C@H](Cc1ccccc1)NC(=O)[C@H](CC(=O)O)NC(=O)[C@H](CCCNC(=N)N)NC(=O)[C@H](C)NC(=O)[C@H](CCCNC(=N)N)NC(=O)[C@H](CCCCNC(=O)COCCOCCNC(=O)COCCOCCNC(=O)CC[C@H](NC(=O)CCCCCCCCCCCCCCCCC(=O)O)C(=O)O)NC(=O)[C@H](CCCCN)NC(=O)[C@H](CC(=O)O)NC(=O)[C@H](CC(C)C)NC(=O)[C@](C)(Cc1ccccc1)NC(=O)[C@H](CCCCN)NC(=O)[C@H](CO)NC(=O)[C@@H](NC(=O)[C@H](CC(=O)O)NC(=O)[C@H](CO)NC(=O)[C@@H](NC(=O)[C@H](Cc1ccccc1)NC(=O)[C@@H](NC(=O)CNC(=O)[C@H](CCC(N)=O)NC(=O)C(C)(C)NC(=O)[C@@H](N)Cc1c[nH]cn1)[C@@H](C)O)[C@@H](C)O)C(C)C)C(C)C)C(=O)N[C@@H](CC(C)C)C(=O)NC(C)(C)C(=O)N[C@@H](CCC(=O)O)C(=O)O [Peptide 414] (H-H[Aib]QGTFTSDVSK[αMeF]LDKK([AEEA-AEEA-γGlu-C18 diacid])RARDFVRWLL[Aib]E-OH; N-terminus assumed)	10.49	1.6	10.57

Further lines, results first:

pEC50 [1]	% Relative Potency Ratio [1]	pEC50 [2]	SMILES
10.83	40.6	9.52	CC(C)C[C@H](NC(=O)[C@H](Cc1c[nH]c2ccccc12)NC(=O)[C@H](CCCNC(=N)N)NC(=O)[C@@H](NC(=O)[C@H](Cc1ccccc1)NC(=O)[C@H](CC(=O)O)NC(=O)[C@H](CCC(N)=O)NC(=O)[C@H](C)NC(=O)[C@H](CCCNC(=N)N)NC(=O)[C@H](CCCCNC(=O)COCCOCCNC(=O)COCCOCCNC(=O)CC[C@H](NC(=O)CCCCCCCCCCCCCCCCC(=O)O)C(=O)O)NC(=O)[C@H](CO)NC(=O)[C@H](CCC(=O)O)NC(=O)[C@H](CC(C)C)NC(=O)[C@](C)(Cc1ccccc1)NC(=O)[C@H](CCCCN)NC(=O)[C@H](CO)NC(=O)[C@@H](NC(=O)[C@H](CC(=O)O)NC(=O)[C@H](CO)NC(=O)[C@@H](NC(=O)[C@H](Cc1ccccc1)NC(=O)[C@@H](NC(=O)CNC(=O)[C@H](CCC(N)=O)NC(=O)C(C)(C)NC(=O)[C@@H](N)Cc1c[nH]cn1)[C@@H](C)O)[C@@H](C)O)C(C)C)C(C)C)C(=O)N[C@@H](CCC(=O)O)C(=O)N[C@@H](C)C(=O)NC(C)(C)C(=O)NCC(=O)O [Peptide 415] (H-H[Aib]QGTFTSDVSK[αMeF]LESK([AEEA-AEEA-γGlu-C18 diacid])RAQDFVRWLEA[Aib]G-OH; N-terminus assumed)
10.17	17.0	9.24	CC(C)C[C@H](NC(=O)[C@H](Cc1c[nH]c2ccccc12)NC(=O)[C@H](CCCNC(=N)N)NC(=O)[C@@H](NC(=O)[C@H](Cc1ccccc1)NC(=O)[C@H](CC(=O)O)NC(=O)[C@H](CCC(N)=O)NC(=O)[C@H](C)NC(=O)[C@H](CCCNC(=N)N)NC(=O)[C@H](CCCCNC(=O)COCCOCCNC(=O)COCCOCCNC(=O)CC[C@H](NC(=O)CCCCCCCCCCCCCCCCCCC(=O)O)C(=O)O)NC(=O)[C@H](CO)NC(=O)[C@H](CCC(=O)O)NC(=O)[C@H](CC(C)C)NC(=O)[C@](C)(Cc1ccccc1)NC(=O)[C@H](CCCCN)NC(=O)[C@H](CO)NC(=O)[C@@H](NC(=O)[C@H](CC(=O)O)NC(=O)[C@H](CO)NC(=O)[C@@H](NC(=O)[C@H](Cc1ccccc1)NC(=O)[C@@H](NC(=O)CNC(=O)[C@H](CCC(N)=O)NC(=O)C(C)(C)NC(=O)[C@@H](N)Cc1c[nH]cn1)[C@@H](C)O)[C@@H](C)O)C(C)C)C(C)C)C(=O)N[C@@H](CCC(=O)O)C(=O)N[C@@H](C)C(=O)NC(C)(C)C(=O)NCC(=O)O [Peptide 416] (H-H[Aib]QGTFTSDVSK[αMeF]LESK([AEEA-AEEA-γGlu-C20 diacid])RAQDFVRWLEA[Aib]G-OH; N-terminus assumed)
10.47	1.0	10.78	CC(C)C[C@H](NC(=O)[C@H](Cc1c[nH]c2ccccc12)NC(=O)[C@H](C)NC(=O)[C@@H](NC(=O)[C@H](Cc1ccccc1)NC(=O)[C@H](CC(=O)O)NC(=O)[C@H](CCC(N)=O)NC(=O)[C@H](C)NC(=O)[C@H](CCCNC(=N)N)NC(=O)[C@H](CCCCNC(=O)COCCOCCNC(=O)COCCOCCNC(=O)CC[C@H](NC(=O)CC[C@H](NC(=O)CCCCCCCCCCCCCCCCC(=O)O)C(=O)O)C(=O)O)NC(=O)[C@@H](NC(=O)[C@H](CC(=O)O)NC(=O)[C@H](CC(C)C)NC(=O)[C@](C)(Cc1ccccc1)NC(=O)[C@H](CCCCN)NC(=O)[C@H](CO)NC(=O)[C@@H](NC(=O)[C@H](CC(=O)O)NC(=O)[C@H](CO)NC(=O)[C@@H](NC(=O)[C@H](Cc1ccccc1)NC(=O)[C@@H](NC(=O)CNC(=O)[C@H](CCC(N)=O)NC(=O)C(C)(C)NC(=O)[C@@H](N)Cc1c[nH]cn1)[C@@H](C)O)[C@@H](C)O)C(C)C)[C@@H](C)O)C(C)C)C(=O)N[C@@H](CCC(=O)O)C(=O)N[C@@H](C)C(=O)NC(C)(C)C(=O)NCC(=O)O [Peptide 417] (H-H[Aib]QGTFTSDVSK[αMeF]LDTK([AEEA-AEEA-γGlu-γGlu-C18 diacid])RAQDFVAWLEA[Aib]G-OH; N-terminus assumed)

Reference: patent US20250353891A1 (MEDIMMUNE LIMITED, priority 2022, published 2025)
